Reference: publication PMC7119052 (Bioorganic & Medicinal Chemistry, 2005)

Columns and labels:
CypA [1] = target: T1, CypA (Homo sapiens, UniProt P62937); test: SPR-based binding affinity assay; conditions: pH 7.4
CypA [2] = target: T1, CypA; test: biochemical
[3] = tested on: mouse spleen cells induced by Con A; test: Proliferation of mouse spleen cells induced by Con A; assay type: cell-based; conditions: 72 h, read-out: Inhibitory rate (%)

T1 sequence (P62937 whole entry): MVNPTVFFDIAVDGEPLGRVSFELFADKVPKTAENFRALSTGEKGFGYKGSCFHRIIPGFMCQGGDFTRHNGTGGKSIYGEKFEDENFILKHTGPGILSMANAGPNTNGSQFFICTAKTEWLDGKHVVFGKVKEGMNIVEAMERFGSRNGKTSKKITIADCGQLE

| SMILES | Kd (CypA [1]) | % inhibition at 10 μM (CypA [2]) | further results |
| --- | --- | --- | --- |
| Cc1ccccc1-c1cc(C(=O)Nc2ccc(S(=O)(=O)Nc3onc(C)c3C)cc2)ccn1 [Compound 16p, 4-(2-(2-Methylphenyl)-pyridine-4-carboxamido)-N-(3,4-dimethyl-isoxazol-5-yl) benzenesulfonamide] | 7.61 µM | – | – |
| Cc1noc(NS(=O)(=O)c2ccc(NC(=O)c3cc(-c4cccc(Br)c4)nc4ccc(F)cc34)cc2)c1C [Compound 16i, 4-(2-(3-Bromophenyl)-6-fluoro-quinoline-4-carboxamido)-N-(3,4-dimethyl-isoxazol-5-yl) benzenesulfonamide] | 2.25 µM | 32.0% | – |
| Cc1noc(NS(=O)(=O)c2ccc(NC(=O)c3ccnc(-c4ccccc4)c3)cc2)c1C [Compound 16m, 4-(2-Phenyl-pyridine-4-carboxamido)-N-(3,4-dimethyl-isoxazol-5-yl) benzenesulfonamide] | 14.5 µM | – | – |
| Cc1noc(NS(=O)(=O)c2ccc(NC(=O)c3cc(-c4ccncc4)nc4ccccc34)cc2)c1C [Compound 16e, 4-(2-Pyridin-4-yl-quinoline-4-carboxamido)-N-(3,4-dimethyl-isoxazol-5-yl) benzenesulfonamide] | 10.6 µM | 40.0% | – |
| Cc1noc(NS(=O)(=O)c2ccc(NC(=O)c3cc(C4CCCCC4)nc4ccccc34)cc2)c1C [Compound 16g, 4-(2-Cyclohexanyl-quinoline-4-carboxamido)-N-(3,4-dimethyl-isoxazol-5-yl) benzenesulfonamide] | 1.79 µM | – | – |
| Cc1ccnc(NS(=O)(=O)c2ccc(NC(=O)c3ccnc(-c4ccccc4C)c3)cc2)n1 [Compound 16q, 4-(2-(2-Methylphenyl)-pyridine-4-carboxamido)-N-(4-methyl-pyrimidin-2-yl) benzenesulfonamide] | 340 µM | – | – |
| Cc1noc(NS(=O)(=O)c2ccc(NC(=O)c3cc(-c4cccs4)nc4ccccc34)cc2)c1C [Compound 16f, 4-(2-Thiophen-2-yl-quinoline-4-carboxamido)-N-(3,4-dimethyl-isoxazol-5-yl) benzenesulfonamide] | 91.3 µM | 30.0% | – |
| Cc1noc(NS(=O)(=O)c2ccc(NC(=O)c3cc(-c4ccccc4Br)nc4ccccc34)cc2)c1C [Compound 16d, 4-(2-(2-Bromophenyl)-quinoline-4-carboxamido)-N-(3,4-dimethyl-isoxazol-5-yl) benzenesulfonamide] | 223 µM | 15.0% | – |
| Cc1noc(NS(=O)(=O)c2ccc(NC(=O)c3cc(-c4cccc(F)c4)nc4ccccc34)cc2)c1C [Compound 16a, 4-(2-(3-Fluorophenyl)-quinoline-4-carboxamido)-N-(3,4-dimethyl-isoxazol-5-yl) benzenesulfonamide] | 10.2 µM | 18.0% | – |
| O=C(CCc1ccccc1)Nc1ccc(S(=O)(=O)Nc2cnc3ccccc3n2)cc1 [Compound 17c, 4-(3-Phenyl-propionamido)-N-quinoxalin-2-yl benzenesulfonamide] | 1.06 µM | – | – |
| Cc1noc(NS(=O)(=O)c2ccc(NC(=O)Cc3ccc(Cl)cc3)cc2)c1C [Compound 17d, 4-(4-Chlorophenylacetamido)-N-(3,4-dimethyl-isoxazol-5-yl) benzenesulfonamide] | 0.35 µM | – | – |
| Cc1noc(NS(=O)(=O)c2ccc(NC(=O)c3ccnc(-c4ccc(Cl)cc4)c3)cc2)c1C [Compound 16n, 4-(2-(4-Chlorophenyl)-pyridine-4-carboxamido)-N-(3,4-dimethyl-isoxazol-5-yl) benzenesulfonamide] | 1.86 µM | – | – |
| O=C(Nc1ccc(S(=O)(=O)Nc2cnc3ccccc3n2)cc1)c1ccccc1 [Compound 17b, 4-Benzamido-N-quinoxalin-2-yl benzenesulfonamide] | 23.4 µM | 5.6% | – |
| Cc1noc(NS(=O)(=O)c2ccc(NC(=O)c3ccnc(-c4ccc(Br)cc4)c3)cc2)c1C [Compound 16l, 4-(2-(4-Bromophenyl)-pyridine-4-carboxamido)-N-(3,4-dimethyl-isoxazol-5-yl) benzenesulfonamide] | 89.5 µM | – | – |
| Cc1noc(NS(=O)(=O)c2ccc(NC(=O)c3ccnc(-c4ccc(F)cc4)c3)cc2)c1C [Compound 16o, 4-(2-(4-Fluorophenyl)-pyridine-4-carboxamido)-N-(3,4-dimethyl-isoxazol-5-yl) benzenesulfonamide] | 42.4 µM | 26.0% | – |
| Cc1noc(NS(=O)(=O)c2ccc(NC(=O)c3cc(-c4ccc(Br)cc4)nc4ccccc34)cc2)c1C [Compound 16c, 4-(2-(4-Bromophenyl)-quinoline-4-carboxamido)-N-(3,4-dimethyl-isoxazol-5-yl) benzenesulfonamide] | 4.11 µM | 10.0% | – |
| COC(=O)c1cc(Cc2ccc(NCc3ccccc3)c(C(=O)OC)c2)ccc1NCc1ccccc1 [Compound 18g, 6,6′-Bis-benzylamino-3,3′-methanediyl-di-benzoic acid dimethyl ester] | – | – | IC50 (CypA [2]): 6.23 µM; inhibition at 1 µM [3]: 1.2 ± 6.41%; inhibition at 10 µM [3]: 7.46 ± 4.13%; inhibition at 100 µM [3]: 28.8 ± 3.39% |
| O=C(Nc1ccc(S(=O)(=O)Nc2cnc3ccccc3n2)cc1)c1cc(-c2cccc(Br)c2)nc2ccccc12 [Compound 16j, 4-(2-(3-Bromophenyl)-quinoline-4-carboxamido)-N-quinoxalin-2-yl benzenesulfonamide] | 3.13 µM | 36.0% | – |
| O=C(Cc1ccc(Cl)cc1Cl)Nc1ccc(S(=O)(=O)Nc2cnc3ccccc3n2)cc1 [Compound 17a, 4-(2,4-Dichlorophenylacetamido)-N-quinoxalin-2-yl benzenesulfonamide] | 37.7 µM | – | – |
